{
  "source": "paper PMC6028453",
  "about": "“BrlR from Pseudomonas aeruginosa is a receptor for both cyclic di-GMP and pyocyanin” (Nature Communications, 2018)",
  "molecules": {"B1": {"name": "PbrlR 36-bp (dsDNA)", "DNA 1": "ACCCCTTGACCTTGCCCCAGGGGCAATCCGTAGTCT", "DNA 2": "AGACTACGGATTGCCCCTGGGGCAAGGTCAAGGGGT"}},
  "key": {"[1]": {"target": "T1, BrlR-C2E mut2 (R67A/R86A) (Pseudomonas aeruginosa, UniProt Q9HUT5, R67A/R86A)", "T1 construct": "His6-SUMO (N, cleaved yes); made in house; host or cells: E. coli BL21 DE3", "T1 sequence (Q9HUT5 whole entry R67A/R86A)": "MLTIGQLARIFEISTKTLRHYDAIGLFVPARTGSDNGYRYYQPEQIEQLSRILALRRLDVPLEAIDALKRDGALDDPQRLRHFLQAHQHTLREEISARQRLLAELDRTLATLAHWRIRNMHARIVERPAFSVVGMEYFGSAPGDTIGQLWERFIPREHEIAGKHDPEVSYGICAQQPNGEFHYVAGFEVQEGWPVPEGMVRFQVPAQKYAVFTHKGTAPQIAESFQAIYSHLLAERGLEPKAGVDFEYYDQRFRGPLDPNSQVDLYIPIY", "assay": "FP binding assay, BrlR-C2E mut2", "protocol": "(§1) F-c-di-GMP and F-c-di-AMP both contain a fluorophore at one of the 2′-ribose hydroxyls of c-di-GMP and c-di-AMP, respectively (Fig. 2f). To measure the binding of c-di-GMP and c-di-AMP to BrlR variants, 1 nM F-c-di-GMP or F-c-di-AMP was incubated with increasing amounts of indicated BrlR WT, BrlR mutation, or BrlR-C in reaction buffer (25 mM HEPES, 100 mM NaCl, pH 7.5) at 25 °C for 20 min. 1 nM fluorescein was incubated with BrlR WT in the same reaction buffer at 25 °C. FP measurements were conducted on a Synergy 4 Microplate Reader (BioTek) at 25 °C. All experiments were performed in triplicate. The curves were fitted to deduce binding affinities by GraphPad Prism 5.\n(§2) BrlR–c-di-GMPs interactions in two separate c-di-GMP binding sites\n(§3) In the first binding site, c-di-GMP is half accommodated by the antiparallel β-sheet and two residues (M1 and D35). In detail, the backbone amide protons of the first M1 residue form a hydrogen bond (H-bond) with the phosphate oxygen atom of c-di-GMP, and the side chain of R31 forms two H-bonds with the Gua1 base. The residue D35 also forms an H-bond with the Gua1 base. The aromatic ring of Y40 interacts with the Gua1 base through a hydrophobic π-π interaction. In addition, the hydroxyl group of the Y270 side chain from another subunit interacts with the phosphate 2 of c-di-GMP via an H-bond (Fig. 2d). […]"}, "BrlR [2]": {"target": "T2, BrlR (Pseudomonas aeruginosa, UniProt Q9HUT5)", "T2 construct": "His6-SUMO (N, cleaved yes); made in house; host or cells: E. coli BL21 DE3", "assay": "Fluorescence polarization (FP) binding assay, wild-type BrlR", "details": "1 nM fluorescent ligand, 25 °C", "from_the_text": "The most striking feature of the BrlR–c-di-GMP complex is the c-di-GMP-binding mode. The DNA-binding domain contains two separate c-di-GMP-binding sites, and shares a mutually intercalated c-di-GMP dimer in a stacking conformation with a crystallographic symmetry related binding site (Fig. 2a–c). […] The interactions stabilizing the c-di-GMPs are different for the two binding sites (Fig. 2d, e, and details are described in Supplementary Note 1). […] This structural feature allows us to perform fluorescence polarization (FP)-based binding assays[19],[23],[24] by using a fluoresceinated c-di-GMP analog, 2′-Fluo-AHC-c-di-GMP (F-c-di-GMP), containing a fluorophore attached to one of the 2′-ribose hydroxyls (Fig. 2f).\nas §1"}, "[3]": {"target": "T3, BrlR-C2E mut1 (R31A/D35A/Y40A/Y270A) (Pseudomonas aeruginosa, UniProt Q9HUT5, D35A/R31A/Y270A/Y40A)", "T3 construct": "His6-SUMO (N, cleaved yes); made in house; host or cells: E. coli BL21 DE3", "assay": "FP binding assay, BrlR-C2E mut1", "protocol": "as §1, §2, §3"}, "BrlR-C": {"target": "T4, BrlR-C (Pseudomonas aeruginosa, UniProt Q9HUT5)", "T4 construct": "His6 (cleaved yes); made in house; host or cells: E. coli (same protocol as BrlR, induction at 18 °C)", "T4 sequence (Q9HUT5 120-270)": "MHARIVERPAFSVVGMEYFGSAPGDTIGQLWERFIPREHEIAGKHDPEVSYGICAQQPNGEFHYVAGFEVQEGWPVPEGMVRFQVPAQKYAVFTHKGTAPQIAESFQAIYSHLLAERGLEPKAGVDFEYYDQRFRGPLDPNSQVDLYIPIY", "assay": "FP competition experiment, BrlR-C", "format": "binding", "details": "550 μM BrlR-C, 1 nM F-c-di-GMP", "protocol": "Supplementary Figure 11: FP analyses of F-c-di-GMP binding to BrlR-C. (a) Isotherms of BrlR-C binding to F-c-di-GMP. The binding experiment was carried out at 25 °C in a buffer containing 150 mM NaCl, 25 mM Tris·HCl (pH 7.5), and 1 nM F-c-di-GMP. Increasing concentrations of BrlR-C were titrated into the reaction mixture to obtain the binding isotherms. (b) Fluorescence polarization competition experiment of BrlR-C. As a control, 550 μM BrlR-C was added to the reaction tube containing 1 nM F-c-di-GMP, and different competitors were respectively added in the solution and the values of millipolarization were recorded.\n(1 picture or pasted object on this page, not shown here)"}, "BrlR-C domain": {"target": "T5, BrlR-C domain (Pseudomonas aeruginosa, UniProt Q9HUT5)", "T5 construct": "His6 (cleaved yes); made in house; host or cells: E. coli (same protocol as BrlR, induction at 18 °C)", "T5 sequence (Q9HUT5 120-270)": "as above", "assay": "Native gel staining with EB", "format": "binding", "from_the_text": "Fig. 5 The BrlR-C domain can bind to diverse toxic compounds with two adjacent binding pockets. a Structural superpositions of BrlR-C and RH6G-bound SAV2435 (PDB code: 5KAU). The residues in contact with the ligand are shown as stick models and are labeled. Electron density (2Fo - Fc map) for imidazole (blue mesh) binding to the BrlR–c-di-GMP complex is contoured at the 1σ level. b The chemical structures of toxic compounds. c FP analyses of the fluorescein binding to BrlR. The binding curves were fit to deduce the binding affinities. d Two μg of BrlR variants were run on the native gel and stained with EB; the scan results are shown in the upper panel. The proteins were visualized by staining with Coomassie blue in the lower panel. e SPR sensorgram and the resulting affinity fit for pyocyanin binding to BrlR. The ligand binding and dissociation phases for all sensorgrams are shown in the upper panel. The concentrations of a pyocyanin are indicated. The binding responses were measured for 4 s before the end of the injection, and the KD values were calculated using the BIAevaluation software in the lower panel. f The monomeric structure of BrlR-C-3A2P complex. 3A2P, PEG and the conserved residues are shown in stick mode. […]\nof multidrug inducers in their C-terminal multidrug-binding domains1-3. […]\nHowever, much more dimers than tetramers were detected (Supplementary Fig. 13a). […]"}, "BrlR [4]": {"target": "T2, BrlR", "details": "ref 1 (Chambers et al., 2014) of response letter; cited from earlier work"}, "BrlR C2E mut1": {"target": "T6, BrlR C2E mut1 (UniProt Q9HUT5 1-270, R31A;D35A;Y40A;Y270A)", "T6 sequence": "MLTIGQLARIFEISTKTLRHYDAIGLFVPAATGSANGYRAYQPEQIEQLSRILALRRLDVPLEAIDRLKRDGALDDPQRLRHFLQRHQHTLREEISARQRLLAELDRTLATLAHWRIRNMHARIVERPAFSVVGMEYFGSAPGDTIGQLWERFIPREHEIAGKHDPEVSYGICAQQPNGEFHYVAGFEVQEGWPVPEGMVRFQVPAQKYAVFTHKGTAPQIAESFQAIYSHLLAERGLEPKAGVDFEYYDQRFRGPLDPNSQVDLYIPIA", "assay": "EMSA; c-di-GMP (increased)", "details": "protein: recombinant; tags: none (His6-SUMO removed); chain copies: 2; label: 5' FAM on strand 1; blunt"}, "BrlR C2E mut2": {"target": "T7, BrlR C2E mut2 (UniProt Q9HUT5 1-270, R67A;R86A)", "T7 sequence": "T6 sequence with A31R, A35D, A40Y, R67A, R86A, A270Y", "assay": "EMSA; c-di-GMP (increased)", "details": "protein: recombinant; tags: none (His6-SUMO removed); chain copies: 2; label: 5' FAM on strand 1; blunt"}, "BrlR [5]": {"target": "T8, BrlR (UniProt Q9HUT5 1-270)", "T8 sequence": "T6 sequence with A31R, A35D, A40Y, A270Y", "assay": "EMSA", "details": "protein: recombinant; tags: none (His6-SUMO removed); chain copies: 4; label: 5' FAM on strand 1; blunt"}},
  "note": "Substitutions are numbered along the chain they refer to.",
  "data": [
    {"molecule": "2′-fluo-AHC-c-di-AMP [F-c-di-AMP]", "values": [
      {"measurement": "Kd", "setting": "[1]", "result": "10.3 ± 0.2", "unit": "µM"},
      {"measurement": "Kd", "setting": "BrlR [2]", "result": "12.9 ± 0.7", "unit": "µM"},
      {"measurement": "Kd", "setting": "BrlR [2]; listed as 2′-fluo-AHC-c-di-AMP", "result": "12.9 ± 0.65", "unit": "µM"},
      {"measurement": "Kd", "setting": "[3]", "result": "63.7 ± 5.1", "unit": "µM"}
    ]},
    {"molecule": "CC[n+]1c(-c2ccccc2)c2cc(N)ccc2c2ccc(N)cc21", "note": "[EB, ethidium bromide]", "values": [
      {"measurement": "competition with F-c-di-GMP binding to BrlR-C", "setting": "BrlR-C", "result": "outcompeted"},
      {"measurement": "staining of protein in native gel", "setting": "BrlR-C domain", "result": "readily stained"}
    ]},
    {"molecule": "Nc1nc2c(ncn2[C@@H]2O[C@H](COP(=O)(O)OP(=O)(O)OP(=O)(O)O)[C@@H](O)[C@H]2O)c(=O)[nH]1", "note": "[GTP]", "values": [
      {"measurement": "effect on binding of c-di-GMP to BrlR", "setting": "BrlR [4]", "result": "not affected"}
    ]},
    {"molecule": "B1", "values": [
      {"measurement": "binding result", "setting": "BrlR C2E mut1", "result": "binds"},
      {"measurement": "binding result", "setting": "BrlR C2E mut2", "result": "binds"},
      {"measurement": "binding result", "setting": "BrlR [5]", "result": "binds"}
    ]}
  ]
}
